In brackets after ≈: the same amount, converted by molar mass.
Assays:
[1] = tested on: E. coli spontaneous mutants; experiment: Broth microdilution MIC of spontaneous mutants; format: cell-based, Escherichia coli
Description: (§1) Select isolates were subcultured onto agar containing drug at the selection concentration, were identified by MALDI, and were frozen for broth microdilution MIC testing as described below.
(§2) To determine whether colonies growing on drug selection plates had elevated MIC values to the selecting antibiotic, susceptibility testing by broth microdilution was conducted on isolated mutants following methodology recommended by CLSI (1), (2), and (3) “Performance Standards for Antimicrobial Susceptibility Testing; Twenty-Eighth Informational Supplement.,” CLSI document M100-S28, 2018.
(§3) All wells in columns 2 through 12 of a standard 96-well microdilution plate (Costar 3795) were filled with 150 μL of the appropriate diluent. Then, 300 μL of the test agents were added to the wells of column 1 of the plates at […] the highest final concentration to be tested. Serial two-fold dilutions were made across the rows through column 11 using the Biomek 2000. The wells of column 12 contained no drug and served as the growth control wells. This plate served as the “mother plate” from which selected MIC assay plates or “daughter plates” were made.
(§4) 2 μL of drug solution from each well of a mother plate was added to each corresponding well of the daughter plate in a single step. A standardized inoculum of each aerobic test organism was prepared per CLSI methods to equal a 0.5 McFarland standard, followed by a dilution of 1:20 in MHB II. The plates were then inoculated with 10 μL of the diluted inoculum using the Biomek 2000 from low to high drug concentration, resulting in a final concentration of approximately 5×10^5 CFU/mL. An un-inoculated plate was incubated for the purpose of assessing solubility of the drug in the test media.
(§5) The plates for the aerobic tests were stacked 3-4 high, covered with a sterile lid on the top plate, and incubated aerobically at 35° C. for 18-20 hr. The MIC was recorded as the lowest concentration of drug that inhibited visible growth of the organism.

[2] = tested on: Streptococcus spp. spontaneous mutants; experiment: organism not typed; format: cell-based
Description: as §1, §2, §3, §4, §5

[3] = tested on: Bacteroides spp. spontaneous mutants; experiment: Broth microdilution MIC of spontaneous mutants; format: cell-based
Description: as §1, §2, §3
Daughter plates for anaerobic organisms were transferred to a Bactron II anaerobic chamber (Sheldon Manufacturing Inc., Cornelius, Oreg.) to reduce for 1 hour prior to inoculation. The inoculum for each organism was prepared in the anaerobic chamber and dispensed into sterile disposable reservoirs. Inoculation was completed using a multichannel pipette to transfer 10 μL of the inoculum into each well of the daughter plate. This yielded a final cell concentration in the daughter plates of approximately 1×10^6 CFU/mL.

COc1c(N2C[C@@H]3CCCN[C@@H]3C2)c(F)cc2c(=O)c(C(=O)O)cn(C3CC3)c12 [MOX]
MIC ([1]; E. coli ATCC 25922, selected on rifaximin 4X MIC, Colony A): 0.015 µg/mL | MIC ([1]; E. coli ATCC 25922, selected on rifaximin 4X MIC, Colony B): 0.015 µg/mL | MIC ([1]; E. coli ATCC 25922, selected on rifaximin 8X MIC, Colony A): 0.015 µg/mL | MIC ([1]; E. coli ATCC 25922, selected on rifaximin 8X MIC, Colony B): 0.015 µg/mL | MIC ([1]; E. coli ATCC 25922 Parent (Table 52)): 0.03 µg/mL | MIC ([1]; E. coli ATCC 35218, selected on rifaximin 4X MIC, Colony A): 0.03 µg/mL | MIC ([1]; E. coli ATCC 35218, selected on rifaximin 4X MIC, Colony B): 0.03 µg/mL | MIC ([1]; E. coli ATCC 35218, selected on rifaximin 8X MIC, Colony A): 0.03 µg/mL | MIC ([1]; E. coli ATCC 35218, selected on rifaximin 8X MIC, Colony B): 0.03 µg/mL | MIC ([1]; E. coli ATCC 35218 Parent (Table 52)): 0.03 µg/mL | MIC ([1]; E. coli MMX 1312, selected on ceftriaxone 4X MIC, Colony A): 0.03 µg/mL | MIC ([1]; E. coli MMX 1312, selected on ceftriaxone 4X MIC, Colony B): 0.06 µg/mL | MIC ([1]; E. coli MMX 1312, selected on ceftriaxone 4X MIC, Colony C): 0.03 µg/mL | MIC ([1]; E. coli MMX 1312, selected on ceftriaxone 8X MIC, Colony A): 0.03 µg/mL | MIC ([1]; E. coli MMX 1312, selected on ceftriaxone 8X MIC, Colony B): 0.03 µg/mL | MIC ([1]; E. coli MMX 1312, selected on ceftriaxone 8X MIC, Colony C): 0.03 µg/mL | MIC ([1]; E. coli MMX 1312, selected on rifaximin 4X MIC, Colony A): 0.03 µg/mL | MIC ([1]; E. coli MMX 1312, selected on rifaximin 4X MIC, Colony B): 0.03 µg/mL | MIC ([1]; E. coli MMX 1312, selected on rifaximin 8X MIC, Colony A): 0.03 µg/mL | MIC ([1]; E. coli MMX 1312, selected on rifaximin 8X MIC, Colony B): 0.03 µg/mL | MIC ([1]; E. coli MMX 1312 Parent): 0.03 µg/mL | MIC ([1]; E. coli MMX 1312 Parent (Table 49)): 0.03 µg/mL | MIC ([1]; E. coli MMX 1312 Parent (Table 52)): 0.03 µg/mL | MIC ([1]; E. coli MMX 1312 mutant selected on meropenem 4X MIC, colony A): 0.03 µg/mL | MIC ([1]; E. coli MMX 1312 mutant selected on meropenem 4X MIC, colony B): 0.03 µg/mL | MIC ([1]; E. coli MMX 1312 mutant selected on meropenem 4X MIC, colony C): 0.03 µg/mL | MIC ([1]; E. coli MMX 1312 mutant selected on meropenem 8X MIC, colony A): 0.03 µg/mL | MIC ([1]; E. coli MMX 1312 mutant selected on meropenem 8X MIC, colony B): 0.03 µg/mL | MIC ([1]; E. coli MMX 1312 mutant selected on meropenem 8X MIC, colony C): 0.03 µg/mL | MIC ([2]; S. agaloctiae ATCC 13813, selected on rifaximin 4X MIC, Colony A): 0.06 µg/mL (≈ 0.149 µM) | MIC ([2]; S. agaloctiae ATCC 13813, selected on rifaximin 4X MIC, Colony B): 0.06 µg/mL (≈ 0.149 µM) | MIC ([2]; S. agaloctiae ATCC 13813, selected on rifaximin 8X MIC, Colony A): 0.06 µg/mL (≈ 0.149 µM) | MIC ([2]; S. agaloctiae ATCC 13813, selected on rifaximin 8X MIC, Colony B): 0.03 µg/mL (≈ 0.0747 µM) | MIC ([2]; S. agaloctiae ATCC 13813 Parent): 0.06 µg/mL (≈ 0.149 µM) | MIC ([2]; S. pneumoniae ATCC 49619, selected on rifaximin 4X MIC, Colony A): 0.06 µg/mL (≈ 0.149 µM) | MIC ([2]; S. pneumoniae ATCC 49619, selected on rifaximin 4X MIC, Colony B): 0.06 µg/mL (≈ 0.149 µM) | MIC ([2]; S. pneumoniae ATCC 49619, selected on rifaximin 8X MIC, Colony A): 0.06 µg/mL (≈ 0.149 µM) | MIC ([2]; S. pneumoniae ATCC 49619, selected on rifaximin 8X MIC, Colony B): 0.06 µg/mL (≈ 0.149 µM) | MIC ([2]; S. pneumoniae ATCC 49619 Parent): 0.12 µg/mL (≈ 0.299 µM) | MIC ([2]; S. pyogenes ATCC 49399, selected on rifaximin 4X MIC, Colony A): 0.06 µg/mL (≈ 0.149 µM) | MIC ([2]; S. pyogenes ATCC 49399, selected on rifaximin 4X MIC, Colony B): 0.06 µg/mL (≈ 0.149 µM) | MIC ([2]; S. pyogenes ATCC 49399, selected on rifaximin 8X MIC, Colony A): 0.06 µg/mL (≈ 0.149 µM) | MIC ([2]; S. pyogenes ATCC 49399, selected on rifaximin 8X MIC, Colony B): 0.06 µg/mL (≈ 0.149 µM) | MIC ([2]; S. pyogenes ATCC 49399 Parent): 0.06 µg/mL (≈ 0.149 µM) | MIC ([3]; B. fragilis ATCC 25285, selected on rifaximin 4X MIC, Colony A): 0.06 µg/mL | MIC ([3]; B. fragilis ATCC 25285, selected on rifaximin 4X MIC, Colony B): 0.12 µg/mL | MIC ([3]; B. fragilis ATCC 25285, selected on rifaximin 8X MIC, Colony A): 0.12 µg/mL | MIC ([3]; B. fragilis ATCC 25285, selected on rifaximin 8X MIC, Colony B): 0.12 µg/mL | MIC ([3]; B. fragilis ATCC 25285 Parent): 0.06 µg/mL | MIC ([3]; B. ovatus MMX 3503, selected on rifaximin 4X MIC, Colony A): 2 µg/mL | MIC ([3]; B. ovatus MMX 3503, selected on rifaximin 4X MIC, Colony B): 0.5 µg/mL | MIC ([3]; B. ovatus MMX 3503, selected on rifaximin 8X MIC, Colony A): 1 µg/mL | MIC ([3]; B. ovatus MMX 3503, selected on rifaximin 8X MIC, Colony B): 1 µg/mL | MIC ([3]; B. ovatus MMX 3503 Parent): 1 µg/mL | MIC ([3]; B. vulgatus ATCC 8482, selected on ceftriaxone 4X MIC, Colony A): 0.5 µg/mL | MIC ([3]; B. vulgatus ATCC 8482, selected on ceftriaxone 4X MIC, Colony B): 0.5 µg/mL | MIC ([3]; B. vulgatus ATCC 8482, selected on rifaximin 4X MIC, Colony A): 0.5 µg/mL | MIC ([3]; B. vulgatus ATCC 8482, selected on rifaximin 4X MIC, Colony B): 0.25 µg/mL | MIC ([3]; B. vulgatus ATCC 8482, selected on rifaximin 8X MIC, Colony A): 0.5 µg/mL | MIC ([3]; B. vulgatus ATCC 8482, selected on rifaximin 8X MIC, Colony B): 0.5 µg/mL | MIC ([3]; B. vulgatus ATCC 8482 Parent (Table 50)): 0.5 µg/mL | MIC ([3]; B. vulgatus ATCC 8482 Parent (Table 54)): 0.5 µg/mL
